Assay [1] concerns GLUT4-PL in CHO/pGLUT4-PL.1 cells. The conditions noted are these: 30 min, serum-containing media, thrombin 20 units/ml.
Description: In this experiment, CHO/pGLUT4-PL.1 cells were treated for 30 min with 0, 0.1, 1, and 10 μM insulin in serum-containing media. The liquid above the cells was then replaced with buffer containing thrombin at 20 units/ml and processed for the intact-cell EFC assay.
1) Seed cells into individual wells at a density of 10,000 cells in 100 μl media. For transient transfectants, replace the media above cells with fresh media one day post-transfection. Perform the intact-cell EFC assay two days after seeding the cells. To assay GLUT4-PL at the cell surface under basal growth conditions (serum-containing media, no exogenous insulin), proceed to step 3.
2) For insulin induction, add 20 μl/well of insulin diluted in media to 6× system concentration (e.g., add 20 μl of 6 μM insulin to the 100 μl liquid above cells to achieve an insulin system concentration of 1 μM). Return plate to incubator for 30 min. Starving cells of serum 2-to-4 hours prior to adding insulin diluted in serum-free media may achieve a larger insulin-response window.
3) Remove the media above the cells by aspiration. Add 50 μl/well thrombin solution (20 units/ml thrombin; 1×PBS; 0.1 mg/ml BSA; 10 mM each KF and NaAzide (NaN3)). Return plate to incubator for 1 hr. […]
5) Add 30 μl/well CL Substrate. […] Readings are taken at periodic intervals from 15 min to 1 hr on a luminescence plate reader.
A further assay has as its system HeLa/IκB-PL cells. Description: cell integrity control, intact-cell EFC assay on cells expressing cytoplasmic reporter IκB-PL. The conditions noted are these: series of increasing thrombin concentrations. Type of assay: cell-based. As to the method: CHO/pGLUT4-PL.1 and HeLa/IκB-PL cells were assayed in parallel with a series of increasing thrombin concentrations (FIG. 6). As had been observed above, thrombin treatment of CHO/pGLUT4-PL.1 cells led to a dose-dependent increase in EFC activity.

For assay [2], the target named is T1, GLUT4-PL in CHO/pGLUT4-PL.1 cells (Homo sapiens, UniProt P14672, INS67[…]).
T1 construct: expressed in transfected cells; host or cells: CHO cells transfected with plasmid pGLUT4-PL.1
T1 sequence (P14672 with tags, fused parts or gaps INS67[withheld]): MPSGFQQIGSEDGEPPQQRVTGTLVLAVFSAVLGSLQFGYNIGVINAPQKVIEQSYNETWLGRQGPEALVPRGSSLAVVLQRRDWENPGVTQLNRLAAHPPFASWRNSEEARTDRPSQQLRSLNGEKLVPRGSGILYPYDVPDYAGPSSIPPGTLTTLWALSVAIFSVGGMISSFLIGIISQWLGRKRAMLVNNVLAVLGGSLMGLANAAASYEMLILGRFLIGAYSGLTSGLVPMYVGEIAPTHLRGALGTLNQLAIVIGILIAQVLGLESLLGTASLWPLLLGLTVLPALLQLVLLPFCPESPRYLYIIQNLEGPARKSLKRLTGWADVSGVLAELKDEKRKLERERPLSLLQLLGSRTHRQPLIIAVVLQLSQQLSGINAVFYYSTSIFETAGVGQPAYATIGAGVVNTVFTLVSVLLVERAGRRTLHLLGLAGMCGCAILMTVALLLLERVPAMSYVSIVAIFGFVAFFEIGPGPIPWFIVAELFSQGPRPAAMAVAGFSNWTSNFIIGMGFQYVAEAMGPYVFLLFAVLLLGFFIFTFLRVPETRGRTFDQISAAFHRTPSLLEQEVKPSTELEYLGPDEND
Description: intact-cell EFC assay, thrombin release of ProLabel from GLUT4-PL. Type of assay: cell-based. Conditions: thrombin 60 units/ml, intact CHO cells expressing pGLUT4-PL.1. As to the method: Detection of GLUT4-PL after protease cleavage. Central to the concept of using EFC to monitor GLUT4-PL at the cell surface is the proteolytic release of the internal ProLabel tag from the protein's first exofacial loop. Initial studies were therefore directed at developing and characterizing an intact-cell EFC protocol using thrombin protease. All of the experiments described below were carried out in 96-well assay plates. To test whether thrombin treatment could enhance EFC signal, intact cells expressing pGLUT4-PL.1 were treated with 50 μl buffer alone or buffer containing thrombin at increasing concentrations. Eighty μl of a solution containing EA and the protease inhibitor AEBSF (7.5 mM final concentration) were added subsequently, followed by 30 μl of chemiluminescent substrate. Thrombin treatment led to a dose-dependent enhancement of EFC activity, with 60 units/ml enhancing EFC activity 4.4-fold over untreated cells (FIG. 4). To test whether thrombin proteolytic activity per se, and not a non-specific component of the thrombin formulation was responsible for the increased EFC signal, a control experiment was performed by inactivating thrombin with AEBSF prior to its addition to cells.

Assay [3] deals with GLUT4-ProLabel fusion protein encoded by plasmid pGLUT4-PL.1 (human). The experiment in a line: cell-based or functional assay.
Chain of GLUT4-ProLabel fusion protein encoded by plasmid pGLUT4-PL.1 (human) (chain, as listed by the source limits assumed): as the sequence (P14672 with tags, fused parts or gaps INS67[withheld]) above

Like-named read-outs stand apart in the source and are kept apart here.

For insulin, the “increase in EFC activity relative to the no-insulin control” value in assay [1] (1 μM insulin) was found to be 15%; in assay [1] (10 μM insulin) it was 40%.
As to thrombin, the “dose-dependent increase in EFC activity (cell integrity)” value in the assay with HeLa/IκB-PL cells is listed as “no such increase was observed”. For the same substance, the “enhancement of EFC activity over untreated cells” value in assay [2] came out at 4.4 fold.
thrombin protease (enzyme) showed an EFC activity (enzyme fragment complementation, chemiluminescence) of intact CHO/pGLUT4-PL.1 cells in assay [3] of 4.4 fold.

The values above are taken from patent US20050136488A1, “Cellular membrane protein assay” (priority 2003, published 2005).
